Data taken from patent US8268366B2, “Cosmetic composition containing salt-fermented extract of natural materials” (Amorepacific Corporation, priority 2008, dated 2012).

Assays:
[1] = system: collagenase; experiment: Measurement of collagenase expression inhibitory activity in human fibroblasts; assay type: cell-based; conditions: human fibroblasts treated at 10^−4 mole for 24 hours; untreated control group set as 100
Description: The collagenase expression inhibitory activity of the extracts of natural materials, prepared in Comparative Examples 1 and 2, and the salt-fermented extracts of natural materials, prepared in Examples 1 to 7, were measured comparatively with those of tocopherol and EGCG. […] Tocopherol and EGCG, which are antioxidant substances, are known to prevent skin aging by regenerating the epidermal cells of the skin.
In the test, human fibroblasts were seeded into a 96-well microtiter plate containing DMEM (Dulbecco's Modified Eagle's Media) medium containing 2.5% fetal bovine serum to a density of 5,000 cells/well and were cultured to a confluence of about 90%. […]
The collected cell culture broths were measured for collagenase production using a commercially available collagenase measurement device (Amersham Phamasia, USA). […]
The absorbance of the 96-well plate having a yellow color was measured at 405 nm using an absorbance spectrometer, and the degree of synthesis of collagenase was calculated according to the following Equation 1. Herein, the absorbance of the cell culture broth collected from the group not treated with the composition was used as a control. That is, the expression of collagenase in the control group was set as 100, and the expression of collagenase in the group treated with the composition was calculated relative to the control group.

[2] = system: procollagen; experiment: Test of the effect of promoting procollagen production in human fibroblasts; assay type: cell-based; conditions: human fibroblasts treated at 10^−4 mole for 24 hours; procollagen type-1 C-peptide EIA; untreated control group set as 100
Description: Procollagen is a collagen production-inducing substance necessary for collagen production and aging prevention, and if the degree of production of procollagen is high, the degree of production of collagen is also high, and thus the production of skin wrinkles can be prevented. Also, vitamin C is known as a component essential for the synthesis of collagen. […] The cell culture broths were then collected. After 24 hours, the amount of released procollagen in the medium was measured with a procollagen type-1 C-peptide EIA kit (MK101, Takara, Japan). Based on the measurement results, the production of procollagen was calculated according to the following Equation 2. Herein, the production of procollagen collected from the group not treated with the composition was used as a control group. […] [formula]

O=C(O[C@@H]1Cc2c(O)cc(O)cc2O[C@@H]1c1cc(O)c(O)c(O)c1)c1cc(O)c(O)c(O)c1 [EGCG]
Collagenase expression (%) [1]: 60%

O=C1O[C@H]([C@@H](O)CO)C(O)=C1O [Vitamin C, vitamin C]
Procollagen production (%) [2]: 120%

tocopherol
Collagenase expression (%) [1]: 75%
